# Source: patent publication US7332495B2 (priority 2002, dated 2008)
# What was measured:
# rats [1] = assay: Spontaneous withdrawal tests (body weight); type: in vivo; settings: for Weight after withdrawal compared with weight one day before withdrawal: IV-12-2 100 mg/kg; for Increase (%) of weight / Weight: IV-12-2 (75 mg/kg)
# rats [2] = assay: Conditional position preference in rats
# Excerpt: A commercially available device for testing (Med Associates Inc.) was used. Measurements were automatically recorded by a computer.
# The data are indicated by means of […], t-test was employed to compare the data in different groups. The rats were divided randomly into groups by weight, 12 for each group. They were positive control groups. […] The experiments were divided into stages of accommodation, training and test. Accommodation: Open the doors between black box and grey box and the door between white box and grey box. put the rats in from the grey box; let them run free in the training box for 15 minutes for 4 days. Training: The white box is with medicine while the black one is without it. The period training is 10 days, the first day with the medicine while the second day not; the third day with the medicine while the fourth day not, so on and so forth. When carrying out the training with medicine, 15 minutes after the rat is administrated (i.g.) with medicine, it is put into the white box for 30 minutes. When the training is without medicine, 15 minutes after the rat is administrated (i.g.) with saline, it is put into the black box for 30 minutes. Test: On the 11th day, the rat is put into the training box, with the door open. The time the rat stays in each box, and the number of time it enters during 15 minutes were determined, and the percentage of the time staying in the white box to the time together in white box and black box is calculated (Table 12).
smiles,measurement,setting,value
"Nc1ccc(CN2CCN(CC(=O)c3ccccc3)CC2)cc1 [IV-12, N^1-(4-aminobenzyl)-N^4-phenacyl piperazine]",Weight after withdrawal compared with weight one day before withdrawal,"rats [1]; ♀, 42 h after withdrawal",1.01 ± 0.05
same,Weight after withdrawal compared with weight one day before withdrawal,"rats [1]; ♀, 66 h after withdrawal",1.01 ± 0.06
same,Weight after withdrawal compared with weight one day before withdrawal,"rats [1]; ♀, 90 h after withdrawal",1.02 ± 0.06
same,Weight after withdrawal compared with weight one day before withdrawal,"rats [1]; ♀, 114 h after withdrawal",1.02 ± 0.07
same,Weight after withdrawal compared with weight one day before withdrawal,"rats [1]; ♀, 138 h after withdrawal",1.04 ± 0.07
same,Weight after withdrawal compared with weight one day before withdrawal,"rats [1]; ♀, 162 h after withdrawal",1.04 ± 0.07
same,Weight after withdrawal compared with weight one day before withdrawal,"rats [1]; ♂, 18 h after withdrawal",0.99 ± 0.04
same,Weight after withdrawal compared with weight one day before withdrawal,"rats [1]; ♂, 42 h after withdrawal",1.00 ± 0.04
same,Weight after withdrawal compared with weight one day before withdrawal,"rats [1]; ♂, 66 h after withdrawal",1.00 ± 0.05
same,Weight after withdrawal compared with weight one day before withdrawal,"rats [1]; ♂, 90 h after withdrawal",1.00 ± 0.04
same,Weight after withdrawal compared with weight one day before withdrawal,"rats [1]; ♂, 114 h after withdrawal",1.01 ± 0.04
same,Weight after withdrawal compared with weight one day before withdrawal,"rats [1]; ♂, 138 h after withdrawal",1.03 ± 0.06
same,Weight after withdrawal compared with weight one day before withdrawal,"rats [1]; ♂, 162 h after withdrawal",1.04 ± 0.08
same,Increase (%) of weight,rats [1]; 12 h after withdrawal,2.0%
same,Weight,rats [1]; 12 h after withdrawal,259.8 ± 34 g
same,Increase (%) of weight,rats [1]; 18 h after withdrawal,2.0%
same,Weight,rats [1]; 18 h after withdrawal,259.8 ± 33 g
same,Increase (%) of weight,rats [1]; 24 h after withdrawal,0.4%
same,Weight,rats [1]; 24 h after withdrawal,255.9 ± 32 g
same,Increase (%) of weight,rats [1]; 36 h after withdrawal,1.9%
same,Weight,rats [1]; 36 h after withdrawal,259.5 ± 33 g
same,Increase (%) of weight,rats [1]; 42 h after withdrawal,1.4%
same,Weight,rats [1]; 42 h after withdrawal,258.5 ± 32 g
same,Increase (%) of weight,rats [1]; 48 h after withdrawal,0.8%
same,Weight,rats [1]; 48 h after withdrawal,256.8 ± 31 g
same,Weight,rats [1]; 60 h after withdrawal,259.6 ± 31 g
same,Increase (%) of weight,rats [1]; 66 h after withdrawal,0.8%
same,Weight,rats [1]; 66 h after withdrawal,256.8 ± 27 g
same,Increase (%) of weight,rats [1]; 72 h after withdrawal,0.4%
same,Weight,rats [1]; 72 h after withdrawal,255.7 ± 29 g
same,Increase (%) of weight,rats [1]; 84 h after withdrawal,3.4%
same,Weight,rats [1]; 84 h after withdrawal,263.6 ± 30 g
same,Increase (%) of weight,rats [1]; 90 h after withdrawal,1.3%
same,Weight,rats [1]; 90 h after withdrawal,258.2 ± 30 g
same,Increase (%) of weight,rats [1]; 96 h after withdrawal,0.9%
same,Weight,rats [1]; 96 h after withdrawal,257.1 ± 28 g
same,Increase (%) of weight,rats [1]; 108 h after withdrawal,4.5%
same,Weight,rats [1]; 108 h after withdrawal,266.3 ± 33 g
same,Increase (%) of weight,rats [1]; 114 h after withdrawal,2.1%
same,Increase (%) of weight,rats [1]; 120 h after withdrawal,1.4%
same,Weight,rats [1]; 120 h after withdrawal,258.3 ± 29 g
same,Weight,rats [1]; 132 h after withdrawal,272.6 ± 35 g
same,Increase (%) of weight,rats [1]; 138 h after withdrawal,4.0%
same,Weight,rats [1]; 138 h after withdrawal,264.9 ± 32 g
same,Increase (%) of weight,rats [1]; 144 h after withdrawal,3.5%
same,Weight,rats [1]; 144 h after withdrawal,263.6 ± 32 g
same,Increase (%) of weight,rats [1]; 156 h after withdrawal,6.6%
same,Weight,rats [1]; 156 h after withdrawal,271.5 ± 40 g
same,Increase (%) of weight,rats [1]; 162 h after withdrawal,4.9%
same,Weight,rats [1]; 162 h after withdrawal,267.2 ± 38 g
same,Increase (%) of weight,rats [1]; 168 h after withdrawal,4.5%
same,Weight,rats [1]; 168 h after withdrawal,266.3 ± 36 g
same,Weight,rats [1]; before withdraw,254.8 ± 32 g
same,Percent in the medicine box (%),rats [2]; 10 mg/kg i.g.,46.1 ± 16.3%
same,Percent in the medicine box (%),rats [2]; 20 mg/kg i.g.,51.9 ± 9.8%
same,Percent in the medicine box (%),rats [2]; 50 mg/kg i.g.,62.9 ± 5.4 %
